Measured values from ChEMBL document CHEMBL5236610, “A Comprehensive Overview of Small-Molecule Androgen Receptor Degraders: Recent Progress and Future Perspectives” (J Med Chem, 2022).
pEC50, pIC50: −log10 of the molar value.

Key:
[1] = target: T1, Androgen receptor (Homo sapiens, UniProt P10275); assay: Inhibition of Androgen receptor (unknown origin)
T1 sequence (P10275 whole entry): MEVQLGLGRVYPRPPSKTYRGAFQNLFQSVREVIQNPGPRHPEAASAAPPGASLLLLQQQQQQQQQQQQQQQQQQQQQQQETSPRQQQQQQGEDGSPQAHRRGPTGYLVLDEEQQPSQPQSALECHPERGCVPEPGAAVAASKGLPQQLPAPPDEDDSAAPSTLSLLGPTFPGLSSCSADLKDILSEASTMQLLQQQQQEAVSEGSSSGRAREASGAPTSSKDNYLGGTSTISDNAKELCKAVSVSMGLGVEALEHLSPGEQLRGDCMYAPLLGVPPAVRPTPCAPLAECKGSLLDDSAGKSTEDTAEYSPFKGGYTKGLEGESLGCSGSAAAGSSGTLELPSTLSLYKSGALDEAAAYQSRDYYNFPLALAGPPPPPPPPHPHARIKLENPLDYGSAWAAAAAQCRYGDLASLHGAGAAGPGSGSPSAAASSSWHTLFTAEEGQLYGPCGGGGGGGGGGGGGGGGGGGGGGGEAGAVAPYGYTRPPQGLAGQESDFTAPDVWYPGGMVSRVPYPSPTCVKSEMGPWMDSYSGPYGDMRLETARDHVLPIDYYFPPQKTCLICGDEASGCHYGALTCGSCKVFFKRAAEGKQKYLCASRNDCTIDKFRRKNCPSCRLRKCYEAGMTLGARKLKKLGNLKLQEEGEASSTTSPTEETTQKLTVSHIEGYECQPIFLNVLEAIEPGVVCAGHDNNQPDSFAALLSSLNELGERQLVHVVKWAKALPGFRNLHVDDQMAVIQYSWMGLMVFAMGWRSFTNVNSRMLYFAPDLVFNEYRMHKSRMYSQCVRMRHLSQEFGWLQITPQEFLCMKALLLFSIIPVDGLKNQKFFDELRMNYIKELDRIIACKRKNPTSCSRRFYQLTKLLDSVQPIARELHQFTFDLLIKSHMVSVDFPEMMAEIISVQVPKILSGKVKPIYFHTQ

[2] = system: LNCaP; assay: Antitumor activity against human LNCaP cells xenografted in nude mouse assessed as decrease in tumor weight at 40 mg/kg via oral gavage for six days weekly for 70 days relative to control; type: functional; parameters: scale not given: the % may be the effect or the level left; details: time 70 day
[3] = system: LNCaP; assay: Antitumor activity against human LNCap cells xenografted in NSG mouse assessed as tumor growth inhibition at 100 mg/kg, sc relative to control; type: functional; details: read-out: TGI
[4] = in vitro; details: mouse, liver microsomes
Description: Metabolic stability in mouse liver microsomes assessed as half life by LC-MS/MS analysis

[5] = target: T2, von Hippel-Lindau disease tumor suppressor/Androgen receptor (Homo sapiens, UniProt P10275+P40337); assay: PROTAC activity at VHL/AR-V7 in human 22Rv1 cells assessed as induction of AR-V7 degradation incubated for 24 hrs by immunoblot assay; type: cell-based
Target sequence in this assay (P40337 whole entry, looked up, change not shown, one chain of several): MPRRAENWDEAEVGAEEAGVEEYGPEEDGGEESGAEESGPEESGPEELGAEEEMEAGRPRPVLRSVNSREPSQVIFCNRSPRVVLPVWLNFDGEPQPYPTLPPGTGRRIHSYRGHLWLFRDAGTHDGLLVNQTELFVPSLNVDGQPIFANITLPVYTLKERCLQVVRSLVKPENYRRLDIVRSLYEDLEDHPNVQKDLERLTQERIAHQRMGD

[6] = target: T2, von Hippel-Lindau disease tumor suppressor/Androgen receptor; assay: PROTAC activity at VHL/full length AR in human 22Rv1 cells assessed as induction of AR degradation incubated for 24 hrs by immunoblot assay; type: cell-based
Target sequence in this assay (P40337 whole entry, one chain of several): as the sequence (P40337 whole entry, looked up, change not shown, one chain of several) above

[7] = target: T1, Androgen receptor; assay: Inhibition of AR LBD in human LNCaP cells; type: cell-based
[8] = target: T1, Androgen receptor; assay: Induction of degradation of AR LBD in human LNCaP cells; type: cell-based
[9] = Downregulation of AR level in human LNCaP cells at 10 uM by Western blot analysis relative to control; type: functional
[10] = Downregulation of AR-Vs level in human LNCaP cells at 10 uM by Western blot analysis relative to control; type: functional
[11] = Antitumor activity in human CWR22rv cells xenografted NOD.CB17-PrkdcSCID/J mouse model assessed as inhibition of tumor growth at 10 mg/kg, ip relative to control; type: functional; parameters: scale not given: the % may be the effect or the level left
[12] = Downregulation of AR-Vs level in human CWR22Rv cells at 10 uM by Western blot analysis relative to control; type: functional
[13] = Downregulation of AR level in human CWR22Rv cells at 10 uM by Western blot analysis relative to control; type: functional
[14] = system: VCaP; assay: Antiproliferative activity against human VCaP cells incubated for 168 hrs by […] assay; type: functional, cell-based
[15] = system: LNCaP; assay: Antiproliferative activity against human LNCap cells incubated for 168 hrs by […] assay; type: functional, cell-based
[16] = system: CWR22R; assay: Antiproliferative activity against human 22Rv1 cells assessed as reduction in cell viability; type: functional, cell-based
[17] = system: LNCaP; assay: Antiproliferative activity against human LNCAP cells assessed as reduction in cell viability; type: functional, cell-based
[18] = target: Protein cereblon/Androgen receptor (Homo sapiens, UniProt P10275+Q96SW2); assay: Protac activity at CRBN/Androgen receptor in human LNCaP cells assessed as Androgen receptor degradation incubated for 24 hrs; type: cell-based
Protein cereblon/Androgen receptor, sequence (Q96SW2 whole entry, one chain of several): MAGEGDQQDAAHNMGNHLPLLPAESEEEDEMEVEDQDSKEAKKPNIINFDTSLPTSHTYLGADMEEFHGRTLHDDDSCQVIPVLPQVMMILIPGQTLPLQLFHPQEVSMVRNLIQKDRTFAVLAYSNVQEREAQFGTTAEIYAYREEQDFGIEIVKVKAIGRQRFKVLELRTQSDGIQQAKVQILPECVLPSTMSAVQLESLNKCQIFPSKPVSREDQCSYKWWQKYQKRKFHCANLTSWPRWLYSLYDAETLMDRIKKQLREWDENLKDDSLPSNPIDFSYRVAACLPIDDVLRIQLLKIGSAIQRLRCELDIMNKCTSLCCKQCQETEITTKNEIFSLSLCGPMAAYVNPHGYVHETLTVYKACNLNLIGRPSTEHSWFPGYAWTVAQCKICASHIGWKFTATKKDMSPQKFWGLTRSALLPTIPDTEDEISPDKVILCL

[19] = system: CWR22R; assay: Antitumor activity against human 22Rv1 cells xenografted in BALB/c nude mouse assessed as reduction in tumor volume at 10 mg/kg administered daily by vernier caliper method relative control; type: functional; parameters: scale not given: the % may be the effect or the level left
[20] = system: LNCaP C4-2B; assay: Antiproliferative activity against human C4-2B cells; type: functional, cell-based
[21] = system: PC-3; assay: Antitumor activity against human PC-3 cells xenografted in mouse assessed as reduction in tumor at 50 mg/kg in presence of bicalutamide relative to control; type: functional; parameters: scale not given: the % may be the effect or the level left
[22] = system: LNCaP C4-2B; assay: Antiproliferative activity against human LNCaP C4-2B cells; type: functional, cell-based
[23] = system: CWR22R; assay: Antiproliferative activity against human 22Rv1 cells; type: functional, cell-based
[24] = system: PC-3; assay: Antiproliferative activity against human PC-3 cells; type: functional, cell-based
[25] = system: LNCaP; assay: Antiproliferative activity against human LNCap cells; type: functional, cell-based
[26] = system: CWR22R; assay: Antitumor activity against human 22rv1 cells xenografted in mouse assessed as suppression of tumor growth at 100 mg/kg, po administered daily for 25 days relative to control; type: functional; details: time 25 day
[27] = target: T3, Steroid 17-alpha-hydroxylase/17,20 lyase (Homo sapiens, UniProt P05093); assay: Inhibition of CYP17AI in human 22Rv1 cells; type: ADME, cell-based
T3 sequence (P05093 whole entry): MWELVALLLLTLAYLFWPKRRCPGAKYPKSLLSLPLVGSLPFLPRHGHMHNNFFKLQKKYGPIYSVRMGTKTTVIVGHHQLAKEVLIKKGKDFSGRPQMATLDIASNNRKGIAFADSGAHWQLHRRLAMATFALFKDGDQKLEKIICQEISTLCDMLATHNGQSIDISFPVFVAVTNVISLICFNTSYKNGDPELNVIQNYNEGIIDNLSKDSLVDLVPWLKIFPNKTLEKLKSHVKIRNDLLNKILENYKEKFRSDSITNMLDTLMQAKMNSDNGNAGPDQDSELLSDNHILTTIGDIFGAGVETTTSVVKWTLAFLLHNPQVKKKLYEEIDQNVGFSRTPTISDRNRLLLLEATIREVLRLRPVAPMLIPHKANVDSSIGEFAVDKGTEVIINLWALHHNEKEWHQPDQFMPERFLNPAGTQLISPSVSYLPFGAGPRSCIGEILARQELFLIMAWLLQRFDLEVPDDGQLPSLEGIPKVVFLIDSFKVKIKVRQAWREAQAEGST

[28] = target: T3, Steroid 17-alpha-hydroxylase/17,20 lyase; assay: Inhibition of CYP17AI in human LNCaP cells; type: ADME, cell-based
[29] = system: CWR22R; assay: Antiproliferative activity against human 22Rv1 cells incubated for 24 hrs by CCK-8 assay; type: functional, cell-based; details: 22Rv1, 24 h
[30] = system: LNCaP C4-2; assay: Antiproliferative activity against human C4-2 cells incubated for 24 hrs by CCK-8 assay; type: functional, cell-based; details: LNCaP C4-2, 24 h
[31] = system: PC-3; assay: Antiproliferative activity against human PC-3 cells incubated for 24 hrs by CCK-8 assay; type: functional, cell-based; details: PC-3, 24 h
[32] = system: DU-145; assay: Antiproliferative activity against human DU-145 cells incubated for 24 hrs by CCK-8 assay; type: functional, cell-based; details: DU-145, 24 h

Clc1ccc(-c2cnc3n2CCC3)cc1
pIC50 [1]: 5.37

CC(C)=CCC[C@](C)(O)[C@H]1CC[C@]2(C)[C@@H]1[C@H](O)C[C@@H]1[C@@]3(C)CC[C@H](O)C(C)(C)[C@@H]3CC[C@]12C
Activity [2]: 32.6%

C[C@](O)(Cn1ccc2cc(F)ccc21)C(=O)Nc1ccc(C#N)c(C(F)(F)F)c1
inhibition in vivo at 100 mg/kg [3]: 65%

CN(C[C@](C)(O)C(=O)Nc1ccc(C#N)c(C(F)(F)F)c1)c1ccc(C#N)c(-c2ccccc2)c1
half-life [4]: 1 min

Cc1ncsc1-c1ccc([C@H](C)NC(=O)[C@@H]2C[C@@H](O)CN2C(=O)[C@@H](NC(=O)CCCCNC(=O)COc2c(-c3csc(N4CCOCC4)n3)ccc(F)c2F)C(C)(C)C)cc1
pEC50 [5]: 6.43
pEC50 [6]: 5.70

CC1(C)C(=O)N(c2ccc(C#N)c(C(F)(F)F)c2)C(=S)N1CCCC(=O)NCCOCCOC(=O)CC12CC3CC(CC(C3)C1)C2
pIC50 [7]: 6.81
pEC50 [8]: 6.00

CCOc1ccc2c(c1OC(C)C)CCN(c1ccc(C(=O)Nc3cccc(C)n3)cn1)C2
Activity [9]: >90%
Activity [10]: >90%
Activity [11]: 65%
Activity [12]: >90%
Activity [13]: >90%

CC1(C)C(=O)N(c2ccc(C#N)c(C(F)(F)F)c2)C(=S)N1CCCCOc1cccc2c1C(=O)N(C1CCC(=O)NC1=O)C2=O (configuration not stated)
pIC50 [14]: 6.90
pIC50 [15]: 5.51

CC1(C)CC(NC(=O)[C@H](Cc2ccc(OCc3c(Cl)cccc3Cl)cc2)NC(=O)/C(=C\c2ccccc2)c2ccccc2)CC(C)(C)N1
pIC50 [16]: 5.59
pIC50 [17]: 5.52

CC(O)(COc1ccc(OCCOCCOc2cccc3c2C(=O)N(C2CCC(=O)NC2=O)C3=O)cc1)C(=O)Nc1ccc(C#N)c(I)c1 (configuration not stated)
pEC50 [18]: 5.28

COc1ccc(-n2nc3ccc(NC(=O)CO[N+](=O)[O-])cc3n2)cc1
Activity [19]: 82%

COc1ccc(C(=O)n2c(C)cc3cc(Cl)ccc32)cc1
pIC50 [20]: 5.96

C[C@H]1[C@H](OC(=O)CCC(=O)O)O[C@@H]2O[C@@]3(C)CC[C@H]4[C@H](C)CC[C@@H]1[C@@]24OO3 [ARTESUNATE]
Activity [21]: >95%

COc1ccc2cc3[n+](cc2c1OC)CCc1cc2c(cc1-3)OCO2 [BERBERINE]
pIC50 [22]: 4.95
pIC50 [23]: 4.90
pIC50 [24]: 4.67
pIC50 [25]: 5.47

CC(C)c1cc2c(c(O)c1O)[C@@]1(C(=O)O)CCCC(C)(C)[C@@H]1CC2 [CARNOSIC ACID]
Activity [26]: 53%

C[C@]12CC[C@H](O)CC1=CC[C@@H]1[C@@H]2CC[C@]2(C)C(n3cnc4ccccc43)=CC[C@@H]12 [GALETERONE]
pIC50 [27]: 7.92
pIC50 [28]: 5.45

COc1ccc(-c2cc(=O)c3c(OC)c(OC)c(OC)c(OC)c3o2)cc1OC [NOBILETIN]
pIC50 [29]: 4.44
pIC50 [30]: 4.52
pIC50 [31]: 3.91
pIC50 [32]: 3.84
